What all share (assay type): in vivo
In series [1] the test system is western flower thrips (Frankliniella occidentalis). The experiment in a line: Test E: control of western flower thrips on Soleil bean plant, contact and/or systemic. Particulars: adult thrips, assessed after 6 days, replicated three times. Put shortly: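 A 5-7 day old Soleil bean plant was sprayed with compound at 250 or 50 ppm in 10% acetone/water with 300 ppm X-77 surfactant, dried 1 hour, then infested with 22-27 adult thrips. After 6 days at 25° C., 45-55% relative humidity, mortality and plant damage were rated; three replicates.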

Series [2] deals with diamondback moth (Plutella xylostella). Put plainly: Test A: control of diamondback moth on radish plant, foliar spray. As to conditions: sprayed at 50 ppm; neonate larvae on radish; assessed after 6 days; replicated three times. Put shortly:
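Radish plants 12–14 days old, pre-infested with about 50 neonate larvae, were sprayed with compound at 50 ppm in 10% acetone/water with 300 ppm X-77 surfactant, in three replicates. Units were held 6 days at 25 °C and 70% RH. Feeding damage was assessed visually and mortality was counted.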

The test system of series [3] is fall armyworm (Spodoptera frugiperda). Put plainly: Test B: control of fall armyworm on corn (maize) plant, foliar spray. Particulars: sprayed at 50 ppm; 1-day-old larvae on corn; replicated three times. The method, then:
Test compounds were formulated using a solution containing 10% acetone, 90% water and 300 ppm X-77™ Spreader Lo-Foam Formula non-ionic surfactant containing alkylarylpolyoxyethylene, free fatty acids, glycols and isopropanol (Loveland Industries, Inc. Greeley, Colo., USA). The formulated compounds were applied in 1 mL of liquid through a SUJ2 atomizer nozzle with ⅛ JJ custom body (Spraying Systems Co. Wheaton, Ill., USA) positioned 1.27 cm (0.5 inches) above the top of each test unit. All experimental compounds in these tests were sprayed at 50 ppm, and the test was replicated three times. After spraying of the formulated test compound, each test unit was allowed to dry for 1 h and then a black, screened cap was placed on top. The test units were held for 6 days in a growth chamber at 25° C. and 70% relative humidity. Plant feeding damage was then visually assessed based on foliage consumed and a pest mortality rating was also counted and calculated for each test unit.
For evaluating control of fall armyworm (Spodoptera frugiperda) the test unit consisted of a small open container with a 4-5-day-old corn (maize) plant inside. This was pre-infested (using a core sampler) with 10-15 1-day-old larvae on a piece of insect diet. Test compounds were formulated and sprayed at 50 ppm as described for Test A and replicated three times. After spraying, the test units were maintained in a growth chamber and then the control efficacy was rated for each test unit as described for Test A.

As for `C[C@@H](NC(=O)c1ccc(C2=NOC(c3cc(Cl)cc(C(F)(F)F)c3)(C(F)(F)F)C2)c2ccccc12)C(=O)NC1CC1` (stereo partly drawn) [Compound 72], the “control efficacy (feeding damage or mortality): very good to excellent levels” value (“control efficacy” below) in series [1] (sprayed at 50 ppm), in series [1] (sprayed at 250 ppm), in series [2] and in series [3] was 20% or less feeding damage or 80% or more mortality throughout.

Regarding `C[C@@H](NC(=O)c1ccc(C2=NOC(c3cc(Cl)cc(C(F)(F)F)c3)(C(F)(F)F)C2)c2ccccc12)C(=O)NCC1CC1` (stereo partly drawn) [Compound 73], the “control efficacy” value in series [1] (sprayed at 50 ppm), in series [1] (sprayed at 250 ppm), in series [2] and in series [3] was 20% or less feeding damage or 80% or more mortality throughout.

In the case of `C[C@@H](NC(=O)c1ccc(C2=NOC(c3cc(Cl)cc(C(F)(F)F)c3)(C(F)(F)F)C2)c2ccccc12)C(N)=O` (stereo partly drawn) [Compound 74], the “control efficacy” value in series [1] (sprayed at 50 ppm), in series [1] (sprayed at 250 ppm), in series [2] and in series [3] was 20% or less feeding damage or 80% or more mortality throughout.

Regarding `O=C(CNC(=O)c1ccc(C2=NOC(c3cc(Cl)cc(C(F)(F)F)c3)(C(F)(F)F)C2)c2ccccc12)NCC1CC1` (stereo not drawn) [Compound 76], the “control efficacy” value in series [1] (sprayed at 50 ppm), in series [1] (sprayed at 250 ppm), in series [2] and in series [3] was 20% or less feeding damage or 80% or more mortality in each case.

Take `CC(NC(=O)c1ccc(C2=NOC(c3cc(Cl)cc(C(F)(F)F)c3)(C(F)(F)F)C2)c2ccccc12)C(=O)NC1CC1` (stereo not drawn) [Compound 78]: the “control efficacy” value in series [1] (sprayed at 50 ppm), in series [1] (sprayed at 250 ppm), in series [2] and in series [3] was 20% or less feeding damage or 80% or more mortality throughout.

On to `CC(NC(=O)c1ccc(C2=NOC(c3cc(Cl)cc(C(F)(F)F)c3)(C(F)(F)F)C2)c2ccccc12)C(=O)NCC1CC1` (stereo not drawn) [Compound 79], for which the “control efficacy” value in series [1] (sprayed at 50 ppm), in series [1] (sprayed at 250 ppm), in series [2] and in series [3] was 20% or less feeding damage or 80% or more mortality in each case.

`C[C@@H](NC(=O)c1ccc(C2=NOC(c3cc(C(F)(F)F)cc(C(F)(F)F)c3)(C(F)(F)F)C2)c2ccccc12)C(=O)NCC1CC1(F)F` (stereo partly drawn) [Compound 80]: the “control efficacy” value in series [1] (sprayed at 50 ppm), in series [1] (sprayed at 250 ppm), in series [2] and in series [3] was 20% or less feeding damage or 80% or more mortality in each case.

Regarding `O=C(CNC(=O)c1ccc(C2=NOC(c3cc(Cl)cc(OC(F)(F)F)c3)(C(F)(F)F)C2)c2ccccc12)NCC1CC1` (stereo not drawn) [Compound 81], the “control efficacy” value in series [1] (sprayed at 50 ppm), in series [2] and in series [3] was 20% or less feeding damage or 80% or more mortality throughout.

As for `O=C(CNC(=O)c1ccc(C2=NOC(c3cc(Cl)cc(OC(F)(F)F)c3)(C(F)(F)F)C2)c2ccccc12)NC1CC1` (stereo not drawn) [Compound 82], the “control efficacy” value in series [1] (sprayed at 50 ppm), in series [2] and in series [3] was 20% or less feeding damage or 80% or more mortality each time.

Regarding `C[C@@H](NC(=O)c1ccc(C2=NOC(c3cc(Br)cc(C(F)(F)F)c3)(C(F)(F)F)C2)c2ccccc12)C(N)=O` (stereo partly drawn) [Compound 83], the “control efficacy” value in series [1] (sprayed at 50 ppm), in series [2] and in series [3] was 20% or less feeding damage or 80% or more mortality each time.

Consider `O=C(CNC(=O)c1ccc(C2=NOC(c3cc(Cl)cc(OCC(F)(F)F)c3)(C(F)(F)F)C2)c2ccccc12)NCC1CC1` (stereo not drawn) [Compound 84], for which the “control efficacy” value in series [1] (sprayed at 50 ppm), in series [2] and in series [3] was 20% or less feeding damage or 80% or more mortality in each case.

For `O=C(CNC(=O)c1ccc(C2=NOC(c3cc(Cl)cc(OCC(F)(F)F)c3)(C(F)(F)F)C2)c2ccccc12)NC1CC1` (stereo not drawn) [Compound 85], the “control efficacy” value in series [1] (sprayed at 50 ppm), in series [2] and in series [3] was 20% or less feeding damage or 80% or more mortality in each case.

On to `CC[C@@H](NC(=O)c1ccc(C2=NOC(c3cc(Cl)cc(C(F)(F)F)c3)(C(F)(F)F)C2)c2ccccc12)C(N)=O` (stereo partly drawn) [Compound 86], for which the “control efficacy” value in series [1] (sprayed at 50 ppm), in series [2] and in series [3] was 20% or less feeding damage or 80% or more mortality throughout.

As for `CC(C)[C@@H](NC(=O)c1ccc(C2=NOC(c3cc(Cl)cc(C(F)(F)F)c3)(C(F)(F)F)C2)c2ccccc12)C(N)=O` (stereo partly drawn) [Compound 87], the “control efficacy” value in series [1] (sprayed at 50 ppm), in series [2] and in series [3] was 20% or less feeding damage or 80% or more mortality in each case.

For `O=C(NCC(=O)N1CCC(F)(F)C1)c1ccc(C2=NOC(c3cc(Cl)cc(Cl)c3)(C(F)(F)F)C2)c2ccccc12` (stereo not drawn) [Compound 90], the “control efficacy” value in series [1] (sprayed at 50 ppm), in series [1] (sprayed at 250 ppm), in series [2] and in series [3] was 20% or less feeding damage or 80% or more mortality throughout.

With `CS(=O)(CCNC(=O)c1ccc(C2=NOC(c3cc(Cl)cc(Cl)c3)(C(F)(F)F)C2)c2ccccc12)=NC(=O)C(F)(F)F` (stereo not drawn) [Compound 93], the “control efficacy” value in series [1] (sprayed at 50 ppm), in series [1] (sprayed at 250 ppm), in series [2] and in series [3] was 20% or less feeding damage or 80% or more mortality throughout.

Values taken from patent US9095138B2, “Isoxazoline insecticides” (E.I. du Pont de Nemours and Company, priority 2007, dated 2015).
